The target of the assay is T1, porcine tubulin (Sus scrofa, UniProt P02550+P02554).
T1 construct: purchased Cytoskeleton, Inc. BK011P
Briefly: Tubulin polymerization inhibition test. Type of assay: biochemical. On the procedure:
For measuring the tubulin polymerization inhibitory action, Tubulin Polymerization Assay Kit (manufactured by Cytoskeleton, Inc., BK011P) was used. A PIPES buffer containing porcine tubulin, GTP, MgCl2, EGTA, Glycerol, and a fluorescent reporter was prepared under ice-cooling as a reaction solution. The reaction solution was ice-cooled until it was used. A test compound solution was prepared by an aqueous solution containing 1.5% DMSO, and added to a 96 well plate (manufactured by Corning Inc., 3686) at 5 μL/well. The reaction solution was added thereto at 50 μL/well, the plate was placed in a microplate reader (FlexStation 3, manufactured by Molecular Device, LLC) in which the internal temperature was set to 37° C. in advance, and the fluorescence intensity measurement (excitation wavelength: 360 nm, detection wavelength: 420 nm) of each well was started. The fluorescence intensity was measured once every minute, and the measurement was continued for 60 minutes.
The tubulin polymerization inhibition rate (%) was calculated by the following equation.
[formula] • a: average amount of fluorescence intensity increase in vehicle-treated well (n=2) • b: average amount of fluorescence intensity increase in test compound-treated well (n=2)
Amount of fluorescence intensity increase: (average fluorescence intensity after 51 to 60 minutes from measurement start)−(average fluorescence intensity after 1 to 6 minutes from measurement start)

Where [1] appears, read: porcine tubulin, 37° C., fluorescence over 60 minutes, read-out: IC50 value (tubulin polymerization inhibition).

Each structure is given as a SMILES string. Like-named read-outs stand apart in the source and are kept apart here. Numbered stars: 1 amine (or outer) side, 2 acyl side, 3 side chain; on linkers, the order of the positions; unused ones are H or OH. Square brackets hold non-standard residues; d marks the D form. Peptide text beside a SMILES is read from it. * marks the point of attachment. X7 = C[C@@H](N*)[C@@H](OC(=O)OCc1cn(C2OC(C(=O)O)C(O)C(O)C2O)nn1)c1ccccc1; Dolaproine = CO[C@@H]([C@@H]1CCCN1)[C@@H](C)C(=O)O; X5 = C[C@@H](N[*:1])[C@@H](OC(=O)[*:2])c1ccccc1; X10 = COCCOC(=O)O[C@@H](c1ccccc1)[C@@H](C)N*; Dil = CC[C@H](C)[C@H](NC)[C@@H](CC(=O)O)OC; X3 = C[C@@H](N*)[C@@H](OP(=O)(O)O)c1ccccc1; X6 = O=C(O)C1OC(n2cc(CN*)nn2)C(O)C(O)C1O; NMeV = CN[C@H](C(=O)O)C(C)C; X8 = c1[nH]nnc1CN*

T1 sequence (P02550 whole entry): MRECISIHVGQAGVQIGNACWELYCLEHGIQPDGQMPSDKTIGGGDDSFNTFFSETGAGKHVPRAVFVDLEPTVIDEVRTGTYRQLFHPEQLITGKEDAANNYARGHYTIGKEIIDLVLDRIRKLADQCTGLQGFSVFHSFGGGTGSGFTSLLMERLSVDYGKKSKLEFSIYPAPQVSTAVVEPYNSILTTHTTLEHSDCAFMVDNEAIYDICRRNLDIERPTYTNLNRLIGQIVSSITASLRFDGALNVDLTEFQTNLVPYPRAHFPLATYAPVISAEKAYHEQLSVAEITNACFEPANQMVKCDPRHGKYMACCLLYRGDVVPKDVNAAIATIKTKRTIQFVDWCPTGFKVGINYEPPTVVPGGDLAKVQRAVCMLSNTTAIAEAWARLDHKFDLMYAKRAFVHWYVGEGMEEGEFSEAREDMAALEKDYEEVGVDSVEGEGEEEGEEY
T1 sequence (P02554 whole entry): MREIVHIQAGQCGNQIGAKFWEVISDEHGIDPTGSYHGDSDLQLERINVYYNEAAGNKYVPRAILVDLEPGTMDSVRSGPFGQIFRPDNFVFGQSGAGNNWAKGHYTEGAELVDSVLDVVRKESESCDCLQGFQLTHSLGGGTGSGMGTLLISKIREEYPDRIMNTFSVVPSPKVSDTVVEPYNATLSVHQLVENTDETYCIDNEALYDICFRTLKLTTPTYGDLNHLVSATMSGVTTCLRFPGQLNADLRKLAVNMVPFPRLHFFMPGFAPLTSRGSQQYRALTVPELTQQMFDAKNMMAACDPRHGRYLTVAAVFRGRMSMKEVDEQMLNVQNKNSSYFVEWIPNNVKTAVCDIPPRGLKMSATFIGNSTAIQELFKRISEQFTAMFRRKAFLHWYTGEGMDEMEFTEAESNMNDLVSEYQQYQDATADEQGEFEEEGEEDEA

Take `CC[C@H](C)[C@@H]([C@@H](CC(=O)N1CCC[C@H]1[C@H](OC)[C@@H](C)C(=O)N[C@H](C)[C@@H](OC(=O)OCCOC)c1ccccc1)OC)N(C)C(=O)[C@@H](NC(=O)[C@@H](NC)C(C)C)C(C)C` [Example U-012] (H-[NMeV]V[Dil][Dolaproine]-X10): the IC50 – broadly, the midpoint of a concentration-inhibition curve – under setting [1] was ≤ 3 µM.

Turning to `CC[C@H](C)[C@@H]([C@@H](CC(=O)N1CCC[C@H]1[C@H](OC)[C@@H](C)C(=O)N[C@H](C)[C@@H](O)c1ccccc1)OC)N(C)C(=O)[C@@H](NC(=O)[C@H](C(C)C)N(C)CCONC)C(C)C` [Example U-013], the IC50 under setting [1] is ≤ 3 µM.

Turning to `CC[C@H](C)[C@@H]([C@@H](CC(=O)N1CCC[C@H]1[C@H](OC)[C@@H](C)C(=O)N[C@H](C)[C@@H](OC(=O)NCCOCCOCCOCCOCCOCCOCCOCCOCCOCCOCCOCCOC)c1ccccc1)OC)N(C)C(=O)[C@@H](NC(=O)[C@@H](NC)C(C)C)C(C)C` [Example U-015], under setting [1], the IC50 was ≤ 3 µM.

Take `CC[C@H](C)[C@@H]([C@@H](CC(=O)N1CCC[C@H]1[C@H](OC)[C@@H](C)C(=O)N[C@H](C)[C@@H](O)c1ccccc1)OC)N(C)C(=O)[C@@H](NC(=O)[C@H](C(C)C)N(C)CCc1ccc(N)cc1F)C(C)C` [Example U-016]: under setting [1], the IC50 was ≤ 3 µM.

For `CC[C@H](C)[C@@H]([C@@H](CC(=O)N1CCC[C@H]1[C@H](OC)[C@@H](C)C(=O)N[C@H](C)[C@@H](O)c1ccccc1)OC)N(C)C(=O)[C@@H](NC(=O)[C@H](C(C)C)N(C)CCCC(=O)N[C@H]1CCc2c(C)c(F)cc3nc4c(c1c23)Cn1c-4cc2c(c1=O)COC(=O)[C@]2(O)CC)C(C)C` [Example U-017], the IC50 was ≤ 3 µM.

As to `CC[C@H](C)[C@@H]([C@@H](CC(=O)N1CCC[C@H]1[C@H](OC)[C@@H](C)C(=O)N[C@H](C)[C@@H](OC(=O)NCc1cn(C2OC(C(=O)O)C(O)C(O)C2O)nn1)c1ccccc1)OC)N(C)C(=O)[C@@H](NC(=O)[C@@H](NC)C(C)C)C(C)C` (stereo partly shown) [Example U-019] (H-[NMeV]V[Dil][Dolaproine][X5]-X6), the IC50 under setting [1] was ≤ 3 µM.

Consider `CC[C@H](C)[C@@H]([C@@H](CC(=O)N1CCC[C@H]1[C@H](OC)[C@@H](C)C(=O)N[C@H](C)[C@@H](OC(=O)OCc1cn(C2OC(C(=O)O)C(O)C(O)C2O)nn1)c1ccccc1)OC)N(C)C(=O)[C@@H](NC(=O)[C@@H](NC)C(C)C)C(C)C` (stereo partly shown) [Example U-020] (H-[NMeV]V[Dil][Dolaproine]-X7), for which the IC50 under setting [1] was ≤ 3 µM.

In the case of `CC[C@H](C)[C@@H]([C@@H](CC(=O)N1CCC[C@H]1[C@H](OC)[C@@H](C)C(=O)N[C@H](C)[C@@H](OC(=O)NCc1c[nH]nn1)c1ccccc1)OC)N(C)C(=O)[C@@H](NC(=O)[C@@H](NC)C(C)C)C(C)C` [Example U-021] (H-[NMeV]V[Dil][Dolaproine][X5]-X8), the IC50 under setting [1] was ≤ 3 µM.

For `CC[C@H](C)[C@@H]([C@@H](CC(=O)N1CCC[C@H]1[C@H](OC)[C@@H](C)C(=O)N[C@H](C)[C@@H](OP(=O)(O)O)c1ccccc1)OC)N(C)C(=O)[C@@H](NC(=O)[C@@H](NC)C(C)C)C(C)C` [Example U-030] (H-[NMeV]V[Dil][Dolaproine]-X3), under setting [1], the IC50 is ≤ 3 µM.

On to `CC[C@H](C)[C@@H]([C@@H](CC(=O)N1CCC[C@H]1[C@H](OC)[C@@H](C)C(=O)N[C@H](C)[C@@H](OP(=O)(O)O)c1ccccc1)OC)N(C)C(=O)[C@@H](NC(=O)[C@H](C(C)C)N(C)C)C(C)C` [Example U-031], for which, under setting [1], the IC50 was ≤ 3 µM.
